Assay results published in paper PMC7125190, “Native/citrullinated LL37-specific T-cells help autoantibody production in Systemic Lupus Erythematosus” (Scientific Reports, 2020).

Assays:
PBMCs [1] = experiment: IL-21 production in PBMC cultures (ELISA); assay type: cell-based, human; details: SLE (but not in psoriasis)
Description: analyzed by flow-cytometry (after staining by BrdU-detection kit, BD Pharmingen). Before cloning, bulk-cultures were stimulated with autologous-irradiated PBMCs and peptide over night, and stained for CD3 and CD4 and with the “Cytokine secretion assays kits” (MACS, Miltenyi Biotec) to detect IL-2-, IFN-ɣ- and/or IL-17-secretion and CD38 as an activation marker, and sorted by a cell-sorter (MoFlo Astrios, Beckman Coulter). Dead cells were excluded by DAPI staining. Sorted activated CD4+CD3+ cells, secreting cytokines were cloned by limiting dilution in Terasaki plates (Nunc Microwell, Sigma-Aldrich) in the presence of allogeneic-irradiated (104) PBMCs activated by phytohaemagglutinin (1 µg/mL, PHA, Murex, 0.5 cells/well) and 100 U/mL of hrIL-2. Clones reactivity and HLA-restriction were analyzed using HLA-matched-homozigous B-LCLs, pulsed with […]
Measurement of cytokine production in primary T-cells and T-cell lines/clones Cytokines secretion was detected by ELISA (Quantikine; R&D Systems, Minneapolis, MN) for IL-4, IL-10, IL-17, IFN-ɣ, IL-22, IL-21, or by Th1/Th2 10-Plex and IL-17-Tissue Culture Kits (read by MSD Sector Imager 2400, Meso Scale Discovery, Gaithersburg, MD). Supernatants were harvested from primary cultures at day 3 (day 2 for T-cell lines/clones). Production of cytokines was also analyzed by flow cytometry after culture of PBMCs with LL37/LL37-peptides for 6-7 days. […]

PBMCs [2] = experiment: LL37-specific T-cell help: autoantibodies in PBMC culture supernatants by ELISA; assay type: cell-based, human; details: for anti-LL37/anti-cit-LL37 antibodies in culture supernatants: SLE PBMCs, 7 days
Procedure: Anti-native/cit-LL37, other antigen antibodies (anti-DNA and anti-RNA), and total anti-human IgG were measured by ELISA as described. Briefly, 96-well flat-bottom plates (Non-Binding surface polystyrene, Corning, USA) are coated with 2 μg/mL of native LL37/cit-LL37 or control proteins or human DNA or human RNA[9] or anti-human IgG antibody (Sigma) in carbonate buffer (0.1 M NaHCHO3, pH 9) for 2 hours (or over night) and washed four times with PBS 0.1% Tween-20. This washing buffer was used for washing at all steps. The blocking buffer containing 2% bovine serum albumin (BSA, Sigma) in PBS was used for at least 1 hour (or over night) to saturate unspecific binding sites. After washing, sera were diluted at various concentrations (usually 1:100 or 1:200) in PBS 2% BSA (cell culture supernatants were diluted 1:2, 1:4 or 1:10) followed by 1 hour incubation with a horseradish peroxidase–conjugated (HRP) goat anti-human IgG (Sigma-Aldrich), diluted 1:10,000 in PBS. The color was developed for 5 minutes with 3,3’,5,5’-tetramethylbenzidine (TMB) substrate (Sigma-Aldrich). The reaction was stopped by adding 50 μl of 2 N H2SO4, and absorbance determined at 450 nm with a reference wavelength of 540 nm. Anti-dsDNA in sera of lupus patients were detected by the standard clinical test Kallestad Crithidia luciliae Complete Kits for detection and semi-quantitation of autoantibodies to native DNA (nDNA) antigens by indirect fluorescence antibody (IFA) procedure. ELISA for detection of anti-tetanus antibodies (anti-TT) was from Abnova (Taiwan).
Peptide-MHC-tetramer staining of T-cell lines/clones and blood T-cells
Peptide-MHC-tetramers (Table S4) were from ProImmune, (UK), TC Metrix, (CH), Benaroya, (USA) and ImmunAware (Denmark). Staining was performed for 40 minutes at 37°C, followed by staining for CD4 (4°C, 20 minutes). Before flow cytometry-acquisition, cells were labelled with PercP-conjugated 7-AAD to exclude dead cells.
LL37 specific T-cell help for production of autoantibodies
We cultured patient PBMCs with LL37 or control antigens and low doses of hrIL-2 (added at day 6, 10U/mL), and we detected appearance of autoantibodies in the culture supernatants by ELISA at various time points (from 7-to 10 days and, when needed, after a second stimulation with autologous PBMCs and antigen). In parallel, we monitored appearance of markers typical of B-cells/plasma cells (CD20, CD27, CD38, CD138) in the CD3neg cells by flow cytometry.
Immunohistochemistry and laser scanner confocal microscopy (LSM)
We performed staining on […] paraffin or frozen sections of human lupus erythematosus skin specimens obtained from CHUV, Dept. of Dermatology. Staining with anti-cit-LL37 Mabs was performed using the antibodies Mab142 and Mab137 at 1:40 dilution, followed by incubation with a […] (Abcam). HRP and DAB (DAKO) were used to develop the color. Nuclear staining was performed with Mayer’s haematoxylin.
To visualize NETs, we seeded neutrophils on coverslips pre-treated with polylysine and stimulated them with various stimuli to induce release of the NETs. After 3 hours, cells were gently washed and stained with anti-CD15-PE or biotinylated polyclonal rabbit anti-LL37 antibodies (Innovagen), followed by addition of AlexaFluor 488-streptavidin. Frozen or paraffin-included SLE renal biopsies, obtained from Policlinico Umberto I, Rome, IT or CHUV Lausanne, CH, were stained, after saturation with blocking buffer (PBS, 0.05% tween 20, 4% BSA) for 1 hour at room temperature. Bopsies in paraffin were stained after de-paraffination in xilene (5 minutes, two times), followed by passages in: absolute ethanol (3 minutes), 95% ethanol in water (3 minutes), 80% ethanol in water (3 minutes), 70% ethanol in water (3 minutes), and antigen retrieval (5 minutes at […]

## LLGDFFR(cit)KSKEKIGKEFKR(cit)IVQR(cit)IKDFLR(cit)NLVPR(cit)TES [cit-LL37, citrullinated LL37 (citrullinated at all five arginin positions)]
PBMCs [1]
  IL-21 production: significant up-regulation
PBMCs [2]
  anti-LL37/anti-cit-LL37 antibodies in culture supernatants: became apparent in culture supernatants
PBMCs [2]; SLE cultures
  anti-HNPs and anti-TT antibodies: did not increase

## LLGDFFRKSKEKIGKEFKRIVQRIKDFLRNLVPRTES [LL37, native LL37, antimicrobial peptide, 37 aa]
PBMCs [1]
  IL-21 production: significant up-regulation
PBMCs [2]; PBMCs of psoriasis patients whose T-cells proliferate to LL37, and HD PBMCs
  anti-LL37/cit-LL37 antibody production: did not lead to significant anti-LL37/cit-LL37 antibody production
PBMCs [2]
  anti-LL37/anti-cit-LL37 antibodies in culture supernatants: became apparent in culture supernatants
PBMCs [2]; SLE cultures
  anti-HNPs and anti-TT antibodies: did not increase
PBMCs [2]; SLE cultures, sequential stimulation with autologous PBMCs and native LL37
  anti-DNA- and RNA-antibody reactivity: became also detectable
